Experimental data as given in ChEMBL document CHEMBL3045821, “Microwave-assisted synthesis of 3-indolyl substituted 4H-chromenes catalyzed by DMAP and their antimicrobial activity” (2012).
≈ marks a conversion by molar mass, not a printed value.

system: Candida albicans; test: Antifungal activity against Candida albicans MTCC 227 after 24 to 48 hr by broth microdilution method; format: functional

Row | SMILES | MIC [µg/mL]
1 | CC1(C)CC(=O)C2=C(C1)OC(N)=C(C#N)C2c1c(-c2ccc(Br)cc2)[nH]c2ccccc12 (centres undefined) | 1000 (≈ 2050 µM)
2 | CS(=O)(=O)c1ccc(-c2[nH]c3ccccc3c2C2C(C#N)=C(N)OC3=C2C(=O)CCC3)cc1 (centres undefined) | 1000 (≈ 2180 µM)
3 | COC1=CC(=O)C[C@@H](C)[C@]12Oc1c(Cl)c(OC)cc(OC)c1C2=O [GRISEOFULVIN] | 500 (≈ 1420 µM)
4 | Cc1ccc(-c2[nH]c3ccccc3c2C2C(C#N)=C(N)OC3=C2C(=O)CC(C)(C)C3)cc1 (centres undefined) | 500 (≈ 1180 µM)
5 | CC1(C)CC(=O)C2=C(C1)OC(N)=C(C#N)C2c1c(-c2ccccc2)[nH]c2ccccc12 (centres undefined) | 1000 (≈ 2440 µM)
6 | COc1ccc(-c2[nH]c3ccccc3c2C2C(C#N)=C(N)OC3=C2C(=O)CCC3)cc1 (centres undefined) | 500 (≈ 1220 µM)
7 | N#CC1=C(N)OC2=C(C(=O)CCC2)C1c1c(-c2ccc(Cl)cc2)[nH]c2ccccc12 (centres undefined) | > 1000
8 | Cc1ccc(-c2[nH]c3ccccc3c2C2C(C#N)=C(N)OC3=C2C(=O)CCC3)cc1 (centres undefined) | 1000 (≈ 2530 µM)
9 | N#CC1=C(N)OC2=C(C(=O)CCC2)C1c1c(-c2ccc(Br)cc2)[nH]c2ccccc12 (centres undefined) | 500 (≈ 1090 µM)
10 | CC1(C)CC(=O)C2=C(C1)OC(N)=C(C#N)C2c1c(-c2ccc([N+](=O)[O-])cc2)[nH]c2ccccc12 (centres undefined) | 200 (≈ 440 µM)

system: Aspergillus fumigatus; test: Antifungal activity against Aspergillus fumigatus MTCC 3008 after 24 to 48 hr by broth microdilution method; format: functional

Row | SMILES | MIC [µg/mL]
11 | CC1(C)CC(=O)C2=C(C1)OC(N)=C(C#N)C2c1c(-c2ccc(Br)cc2)[nH]c2ccccc12 (centres undefined) | 200 (≈ 410 µM)
12 | CS(=O)(=O)c1ccc(-c2[nH]c3ccccc3c2C2C(C#N)=C(N)OC3=C2C(=O)CCC3)cc1 (centres undefined) | 1000 (≈ 2180 µM)
13 | COC1=CC(=O)C[C@@H](C)[C@]12Oc1c(Cl)c(OC)cc(OC)c1C2=O [GRISEOFULVIN] | 100 (≈ 283 µM)
14 | Cc1ccc(-c2[nH]c3ccccc3c2C2C(C#N)=C(N)OC3=C2C(=O)CC(C)(C)C3)cc1 (centres undefined) | 1000 (≈ 2360 µM)
15 | CC1(C)CC(=O)C2=C(C1)OC(N)=C(C#N)C2c1c(-c2ccccc2)[nH]c2ccccc12 (centres undefined) | 500 (≈ 1220 µM)
16 | COc1ccc(-c2[nH]c3ccccc3c2C2C(C#N)=C(N)OC3=C2C(=O)CCC3)cc1 (centres undefined) | 1000 (≈ 2430 µM)
17 | N#CC1=C(N)OC2=C(C(=O)CCC2)C1c1c(-c2ccc(Cl)cc2)[nH]c2ccccc12 (centres undefined) | 1000 (≈ 2400 µM)
18 | Cc1ccc(-c2[nH]c3ccccc3c2C2C(C#N)=C(N)OC3=C2C(=O)CCC3)cc1 (centres undefined) | 1000 (≈ 2530 µM)
19 | N#CC1=C(N)OC2=C(C(=O)CCC2)C1c1c(-c2ccc(Br)cc2)[nH]c2ccccc12 (centres undefined) | 500 (≈ 1090 µM)
20 | CC1(C)CC(=O)C2=C(C1)OC(N)=C(C#N)C2c1c(-c2ccc([N+](=O)[O-])cc2)[nH]c2ccccc12 (centres undefined) | 250 (≈ 550 µM)

system: Escherichia coli; test: Antibacterial activity against Escherichia coli MTCC 443 after 24 to 48 hr by broth microdilution method; format: functional

Row | SMILES | MIC [µg/mL]
21 | CC1(C)CC(=O)C2=C(C1)OC(N)=C(C#N)C2c1c(-c2ccc(Br)cc2)[nH]c2ccccc12 (centres undefined) | 200 (≈ 410 µM)
22 | CS(=O)(=O)c1ccc(-c2[nH]c3ccccc3c2C2C(C#N)=C(N)OC3=C2C(=O)CCC3)cc1 (centres undefined) | 100 (≈ 218 µM)
23 | Cc1ccc(-c2[nH]c3ccccc3c2C2C(C#N)=C(N)OC3=C2C(=O)CC(C)(C)C3)cc1 (centres undefined) | 500 (≈ 1180 µM)
24 | CC1(C)CC(=O)C2=C(C1)OC(N)=C(C#N)C2c1c(-c2ccccc2)[nH]c2ccccc12 (centres undefined) | 500 (≈ 1220 µM)
25 | COc1ccc(-c2[nH]c3ccccc3c2C2C(C#N)=C(N)OC3=C2C(=O)CCC3)cc1 (centres undefined) | 100 (≈ 243 µM)
26 | N#CC1=C(N)OC2=C(C(=O)CCC2)C1c1c(-c2ccc(Cl)cc2)[nH]c2ccccc12 (centres undefined) | 100 (≈ 240 µM)
27 | Cc1ccc(-c2[nH]c3ccccc3c2C2C(C#N)=C(N)OC3=C2C(=O)CCC3)cc1 (centres undefined) | 200 (≈ 506 µM)
28 | N#CC1=C(N)OC2=C(C(=O)CCC2)C1c1c(-c2ccc(Br)cc2)[nH]c2ccccc12 (centres undefined) | 125 (≈ 272 µM)
29 | CC1(C)CC(=O)C2=C(C1)OC(N)=C(C#N)C2c1c(-c2ccc([N+](=O)[O-])cc2)[nH]c2ccccc12 (centres undefined) | 250 (≈ 550 µM)

system: Vibrio cholerae; test: Antibacterial activity against Vibrio cholerae MTCC 3906 after 24 to 48 hr by broth microdilution method; format: functional

Row | SMILES | MIC [µg/mL]
30 | CC1(C)CC(=O)C2=C(C1)OC(N)=C(C#N)C2c1c(-c2ccc(Br)cc2)[nH]c2ccccc12 (centres undefined) | 500 (≈ 1020 µM)
31 | CS(=O)(=O)c1ccc(-c2[nH]c3ccccc3c2C2C(C#N)=C(N)OC3=C2C(=O)CCC3)cc1 (centres undefined) | 500 (≈ 1090 µM)
32 | Cc1ccc(-c2[nH]c3ccccc3c2C2C(C#N)=C(N)OC3=C2C(=O)CC(C)(C)C3)cc1 (centres undefined) | 500 (≈ 1180 µM)
33 | CC1(C)CC(=O)C2=C(C1)OC(N)=C(C#N)C2c1c(-c2ccccc2)[nH]c2ccccc12 (centres undefined) | 200 (≈ 488 µM)
34 | COc1ccc(-c2[nH]c3ccccc3c2C2C(C#N)=C(N)OC3=C2C(=O)CCC3)cc1 (centres undefined) | 200 (≈ 486 µM)
35 | N#CC1=C(N)OC2=C(C(=O)CCC2)C1c1c(-c2ccc(Cl)cc2)[nH]c2ccccc12 (centres undefined) | 100 (≈ 240 µM)
36 | Cc1ccc(-c2[nH]c3ccccc3c2C2C(C#N)=C(N)OC3=C2C(=O)CCC3)cc1 (centres undefined) | 250 (≈ 632 µM)
37 | N#CC1=C(N)OC2=C(C(=O)CCC2)C1c1c(-c2ccc(Br)cc2)[nH]c2ccccc12 (centres undefined) | 200 (≈ 434 µM)
38 | CC1(C)CC(=O)C2=C(C1)OC(N)=C(C#N)C2c1c(-c2ccc([N+](=O)[O-])cc2)[nH]c2ccccc12 (centres undefined) | 250 (≈ 550 µM)

system: Salmonella typhi; test: Antibacterial activity against Salmonella enterica subsp. enterica serovar Typhi MTCC 98 after 24 to 48 hr by broth microdilution method; format: functional

Row | SMILES | MIC [µg/mL]
39 | CC1(C)CC(=O)C2=C(C1)OC(N)=C(C#N)C2c1c(-c2ccc(Br)cc2)[nH]c2ccccc12 (centres undefined) | 250 (≈ 512 µM)
40 | CS(=O)(=O)c1ccc(-c2[nH]c3ccccc3c2C2C(C#N)=C(N)OC3=C2C(=O)CCC3)cc1 (centres undefined) | 100 (≈ 218 µM)
41 | Cc1ccc(-c2[nH]c3ccccc3c2C2C(C#N)=C(N)OC3=C2C(=O)CC(C)(C)C3)cc1 (centres undefined) | 250 (≈ 590 µM)
42 | CC1(C)CC(=O)C2=C(C1)OC(N)=C(C#N)C2c1c(-c2ccccc2)[nH]c2ccccc12 (centres undefined) | 500 (≈ 1220 µM)
43 | COc1ccc(-c2[nH]c3ccccc3c2C2C(C#N)=C(N)OC3=C2C(=O)CCC3)cc1 (centres undefined) | 200 (≈ 486 µM)
44 | N#CC1=C(N)OC2=C(C(=O)CCC2)C1c1c(-c2ccc(Cl)cc2)[nH]c2ccccc12 (centres undefined) | 125 (≈ 301 µM)
45 | Cc1ccc(-c2[nH]c3ccccc3c2C2C(C#N)=C(N)OC3=C2C(=O)CCC3)cc1 (centres undefined) | 250 (≈ 632 µM)
46 | N#CC1=C(N)OC2=C(C(=O)CCC2)C1c1c(-c2ccc(Br)cc2)[nH]c2ccccc12 (centres undefined) | 200 (≈ 434 µM)
47 | CC1(C)CC(=O)C2=C(C1)OC(N)=C(C#N)C2c1c(-c2ccc([N+](=O)[O-])cc2)[nH]c2ccccc12 (centres undefined) | 500 (≈ 1100 µM)

system: Bacillus subtilis; test: Antibacterial activity against Bacillus subtilis MTCC 441 after 24 to 48 hr by broth microdilution method; format: functional

Row | SMILES | MIC [µg/mL]
48 | CC1(C)CC(=O)C2=C(C1)OC(N)=C(C#N)C2c1c(-c2ccc(Br)cc2)[nH]c2ccccc12 (centres undefined) | 200 (≈ 410 µM)
49 | CS(=O)(=O)c1ccc(-c2[nH]c3ccccc3c2C2C(C#N)=C(N)OC3=C2C(=O)CCC3)cc1 (centres undefined) | 500 (≈ 1090 µM)
50 | Cc1ccc(-c2[nH]c3ccccc3c2C2C(C#N)=C(N)OC3=C2C(=O)CC(C)(C)C3)cc1 (centres undefined) | 250 (≈ 590 µM)
51 | CC1(C)CC(=O)C2=C(C1)OC(N)=C(C#N)C2c1c(-c2ccccc2)[nH]c2ccccc12 (centres undefined) | 200 (≈ 488 µM)
52 | COc1ccc(-c2[nH]c3ccccc3c2C2C(C#N)=C(N)OC3=C2C(=O)CCC3)cc1 (centres undefined) | 250 (≈ 608 µM)
53 | N#CC1=C(N)OC2=C(C(=O)CCC2)C1c1c(-c2ccc(Cl)cc2)[nH]c2ccccc12 (centres undefined) | 200 (≈ 481 µM)
54 | Cc1ccc(-c2[nH]c3ccccc3c2C2C(C#N)=C(N)OC3=C2C(=O)CCC3)cc1 (centres undefined) | 500 (≈ 1260 µM)
55 | N#CC1=C(N)OC2=C(C(=O)CCC2)C1c1c(-c2ccc(Br)cc2)[nH]c2ccccc12 (centres undefined) | 200 (≈ 434 µM)
56 | CC1(C)CC(=O)C2=C(C1)OC(N)=C(C#N)C2c1c(-c2ccc([N+](=O)[O-])cc2)[nH]c2ccccc12 (centres undefined) | 500 (≈ 1100 µM)

system: Clostridium tetani; test: Antibacterial activity against Clostridium tetani MTCC 449 after 24 to 48 hr by broth microdilution method; format: functional

Row | SMILES | MIC [µg/mL]
57 | CC1(C)CC(=O)C2=C(C1)OC(N)=C(C#N)C2c1c(-c2ccc(Br)cc2)[nH]c2ccccc12 (centres undefined) | 500 (≈ 1020 µM)
58 | CS(=O)(=O)c1ccc(-c2[nH]c3ccccc3c2C2C(C#N)=C(N)OC3=C2C(=O)CCC3)cc1 (centres undefined) | 100 (≈ 218 µM)
59 | Cc1ccc(-c2[nH]c3ccccc3c2C2C(C#N)=C(N)OC3=C2C(=O)CC(C)(C)C3)cc1 (centres undefined) | 250 (≈ 590 µM)
60 | CC1(C)CC(=O)C2=C(C1)OC(N)=C(C#N)C2c1c(-c2ccccc2)[nH]c2ccccc12 (centres undefined) | 200 (≈ 488 µM)
61 | COc1ccc(-c2[nH]c3ccccc3c2C2C(C#N)=C(N)OC3=C2C(=O)CCC3)cc1 (centres undefined) | 100 (≈ 243 µM)
62 | N#CC1=C(N)OC2=C(C(=O)CCC2)C1c1c(-c2ccc(Cl)cc2)[nH]c2ccccc12 (centres undefined) | 500 (≈ 1200 µM)
63 | Cc1ccc(-c2[nH]c3ccccc3c2C2C(C#N)=C(N)OC3=C2C(=O)CCC3)cc1 (centres undefined) | 500 (≈ 1260 µM)
64 | N#CC1=C(N)OC2=C(C(=O)CCC2)C1c1c(-c2ccc(Br)cc2)[nH]c2ccccc12 (centres undefined) | 200 (≈ 434 µM)
65 | CC1(C)CC(=O)C2=C(C1)OC(N)=C(C#N)C2c1c(-c2ccc([N+](=O)[O-])cc2)[nH]c2ccccc12 (centres undefined) | 200 (≈ 440 µM)

system: Streptococcus pneumoniae; test: Antibacterial activity against Streptococcus pneumoniae MTCC 1936 after 24 to 48 hr by broth microdilution method; format: functional

Row | SMILES | MIC [µg/mL]
66 | CC1(C)CC(=O)C2=C(C1)OC(N)=C(C#N)C2c1c(-c2ccc(Br)cc2)[nH]c2ccccc12 (centres undefined) | 125 (≈ 256 µM)
67 | CS(=O)(=O)c1ccc(-c2[nH]c3ccccc3c2C2C(C#N)=C(N)OC3=C2C(=O)CCC3)cc1 (centres undefined) | 500 (≈ 1090 µM)
68 | Cc1ccc(-c2[nH]c3ccccc3c2C2C(C#N)=C(N)OC3=C2C(=O)CC(C)(C)C3)cc1 (centres undefined) | 200 (≈ 472 µM)
69 | CC1(C)CC(=O)C2=C(C1)OC(N)=C(C#N)C2c1c(-c2ccccc2)[nH]c2ccccc12 (centres undefined) | 200 (≈ 488 µM)
70 | COc1ccc(-c2[nH]c3ccccc3c2C2C(C#N)=C(N)OC3=C2C(=O)CCC3)cc1 (centres undefined) | 200 (≈ 486 µM)
71 | N#CC1=C(N)OC2=C(C(=O)CCC2)C1c1c(-c2ccc(Cl)cc2)[nH]c2ccccc12 (centres undefined) | 200 (≈ 481 µM)
72 | Cc1ccc(-c2[nH]c3ccccc3c2C2C(C#N)=C(N)OC3=C2C(=O)CCC3)cc1 (centres undefined) | 500 (≈ 1260 µM)
73 | N#CC1=C(N)OC2=C(C(=O)CCC2)C1c1c(-c2ccc(Br)cc2)[nH]c2ccccc12 (centres undefined) | 100 (≈ 217 µM)
74 | CC1(C)CC(=O)C2=C(C1)OC(N)=C(C#N)C2c1c(-c2ccc([N+](=O)[O-])cc2)[nH]c2ccccc12 (centres undefined) | 250 (≈ 550 µM)
